Test results published in patent US8814837B2, “Simple device for treating tinea unguium” (priority 2008, dated 2014).
Values joined by “and” are separate entries in the source; they are usually repeats but may differ in a detail not shown here. Identical values can stand only once. Counter-ions that a name gives are not always drawn.

Assays:
Assay type in all cases: in vivo
[1] = Terbinafine hydrochloride content in the nail tip after oral administration of a terbinafine hydrochloride tablet
Description: As conventionally used as a treatment method for tinea unguium, a terbinafine hydrochloride tablet was orally administered once a day continuously for 4 weeks. A part of the tip of the nail was then cut and measured for the concentration of the terbinafine hydrochloride in the same manner as in Examples 1 to 3.
In Comparative Example 1, the measurement of terbinafine hydrochloride was carried out after administration period of 4 weeks, because the terbinafine hydrochloride was not detected after administration of 2 days.

[2] = Terbinafine hydrochloride content in the nail tip after the dome-shaped applicator was bonded to the nail; details: 0.15 mL of 1% solution, two days; for terbinafine hydrochloride content in the nail: nail tip, individual samples No. 1-6; for concentration at 2 days: nail (tip), topical, 1% solution, average of No. 1-6
Description: The dome-shaped applicator of the first type as shown in FIG. 2 (inside volume: 0.15 mL) was used. A commercially available instantaneous adhesive agent (cyanoacrylate-based adhesive) was applied to the flange of the applicator for bonding. The flange was then hermetically bonded to a surface of a nail. Using a syringe (inside volume: 0.5 mL), 0.15 mL of a solution having a terbinafine hydrochloride content of 1% was injected through the feed port. The feed port was then opened so that the inside and outside of the applicator was in fluid communication with each other. Thus, the inside air was released and the inside of the dome-shaped applicator reached ambient pressure (1.0 atm.). The applicator was maintained as such for two days and then removed from the nail. A part of the tip of the nail was cut and measured for the concentration of the terbinafine hydrochloride.
(§1) The dome-shaped applicator of the second type as shown in FIG. 8 (inside volume: 0.15 mL) was used. A commercially available instantaneous adhesive agent (cyanoacrylate-based adhesive) was applied to the flange of the applicator for bonding. The flange was then hermetically bonded to a surface of a nail. Using a syringe (inside volume: 0.5 mL), 0.15 mL of a solution having a terbinafine hydrochloride content of 1% was injected through the thick film portion near the opening of the dome-shaped applicator.
Because the dome-shaped applicator was hermetically bonded to the nail, the thin film portion in the upper part thereof inflated. […] The dome-shaped applicator was maintained in the hermetically bonded state for two days and then removed from the nail. A part of the tip of the nail was cut and measured for the concentration of the terbinafine hydrochloride.
as §1, with “the third” for “the second”, “FIG. 15” for “FIG. 8”, “0.15 ml.)” for “0.15 mL)”, “applicator. Because the dome-shaped applicator was hermetically bonded to the nail, the thin film portion in the upper part thereof was inverted and protruded as shown in FIG. 15(B).” for “applicator.”
The dome-shaped applicator was maintained in the hermetically bonded state for two days and then removed from the nail. A part of the tip of the nail was cut and measured for the concentration of the terbinafine hydrochloride.

[3] = Terbinafine hydrochloride content in the nail after applying a 1% external medicine to the nail surface; details: 1% external medicine applied to nail surface twice a day for 4 weeks
Text: Incidentally, a 1% terbinafine hydrochloride external medicine was applied to a surface of a nail twice a day continuously for 4 weeks. A part of the tip of the nail was then cut and measured for the concentration of the terbinafine hydrochloride.

CN(C/C=C/C#CC(C)(C)C)Cc1cccc2ccccc12 [terbinafine hydrochloride]
terbinafine hydrochloride content in the nail ([1]; Comparative Example 1: tablet orally once a day for 4 weeks, nail tip, individual samples No. 1-6, hydrochloride): 0.24 ng/mg and 0.38 ng/mg and 0.15 ng/mg and 0.28 ng/mg and 0.45 ng/mg and 0.11 ng/mg
concentration at 4 weeks ([1]; human, nail (tip), po, Comparative Example 1: tablet orally once a day for 4 weeks, average of No. 1-6): 380 ng/g
terbinafine hydrochloride detected in the nail ([1]; oral tablet, after administration of 2 days): not detected
terbinafine hydrochloride content in the nail ([2]; Example 1: first-type applicator, ambient pressure (1.0 atm)): 27.0 ng/mg and 40.8 ng/mg and 67.6 ng/mg and 42.9 ng/mg and 52.0 ng/mg and 32.4 ng/mg
terbinafine hydrochloride content in the nail ([2]; Example 2: second-type applicator, inside pressure 1.3 atm): 43.7 ng/mg and 66.1 ng/mg and 88.8 ng/mg and 68.6 ng/mg and 104.9 ng/mg and 38.9 ng/mg
terbinafine hydrochloride content in the nail ([2]; Example 3: third-type applicator, inside pressure 1.3 atm): 41.5 ng/mg and 67.2 ng/mg and 86.3 ng/mg and 70.2 ng/mg and 75.8 ng/mg and 42.3 ng/mg
concentration at 2 days ([2]; Example 1: first-type applicator, 1.0 atm): 43800 ng/g
concentration at 2 days ([2]; Example 2: second-type applicator, 1.3 atm): 68500 ng/g
concentration at 2 days ([2]; Example 3: third-type applicator, 1.3 atm): 63900 ng/g
penetration of terbinafine hydrochloride into a surface region of the nail [3]: slightly penetrate
terbinafine hydrochloride detected in a deep part of the nail [3]: Almost no terbinafine hydrochloride was detected
